# Results as given in US6448430B1, “Process for the preparation of aryl carboxylate esters” (priority 1999, dated 2002).
# Assay: Solubility of NOBS in selected solvents
# Assay type: physicochemical
# Settings: TFA versus acetic acid; ambient temperature
# Text: The solvent properties of TFA are unique and highly advantageous in the synthesis of phenolsulfonate esters. […] It is notable that the only solvent in which NOBS is more soluble than water is TFA. I have found no better solvent for NOBS than TFA. This is surprising. […] It is likely that hydrogen bonding in TFA facilitates the solvation of sulfonate anions but it is notable, in contrast, that such effects are much weaker in acetic acid. Furthermore, while it is known in the art that dimethyl sulfoxide (DMSO) and dimethylformamide (DMF) are relatively good solvents for benzenesulfonate esters they are much weaker solvents than TFA and because TFA has a much lower boiling point than these dipolar aprotic solvents it is the only good solvent for benzenesulfonate esters which can be readily stripped from product solutions and then purified and recycled with relative ease.
smiles,measurement,value
"CCCCCCCCC(=O)Oc1ccc(S(=O)(=O)[O-])cc1.[Na+] [NOBS, sodium 4-(nonanoyloxy)benzene sulfonate]",Amount of NOBS dissolved by TFA relative to the amount soluble in acetic acid,more than ten times
